In US20250296937A1, “CYCLIC BISBENZYL TETRAHYDROISOQUINOLINE COMPOUND, AND PREPARATION METHOD THEREFOR AND USE THEREOF” (Shanghai Institute of Materia Medica, Chinesse Academy of …, priority 2021, published 2025):
Entries after “also recorded” stand apart in the source; their conditions may differ. Like-named read-outs stand apart in the source and are kept apart here.

Assays:
ALM12 hepatocytes = assay: Anti H2O2-induced necrotic injury assay in ALM12 hepatocytes (microscopy, CCK-8); type: cell-based; settings: 2 mM H2O2, 1 μM compound, 3 hours, microscope and CCK-8
Method: In this example, the effect of the compounds of the present invention on the level of necrotic injury induced by H2O2 in ALM12 hepatocytes was analyzed by microscopic morphological observations, cell viability in combination with cell death-associated molecules. Cell viability was analyzed by CCK-8 assay. ALM12 cells were cultured in 1640 medium (gibco, c11995500BT)+10% FBS (gibco, 10099141C) in a constant temperature incubator at 37° C., 5% CO2; the CCK-8 kit was purchased from Meilunbio, item no. MA0218-3; H2O2 was purchased from Sinopharm Chemical Reagent Co. item no. 10011208.
(§1) Experimental methods: first, 8000 cells/well ALM12 cells were placed in 96-well plates and incubated overnight. On the second day, 0.1% DMSO was added to the control cells, 2 mM H2O2 as well as 0.1% DMSO was added to the model group, 2 mM H2O2 as well as 1 μM of the compounds (oxy, 1, 2, tet, 3, 4, 6, 58) was added to the treatment group, and the 96-well plates were sterilized and incubated in a constant temperature incubator for 3 hours. Finally, cell injury and growth were observed using a microscope; the viability of the cells was detected by CCK-8 kit.

[1] = test system: 2019 novel coronavirus (SARS-CoV-2) original strain; assay: Replication inhibitory activity against SARS-CoV-2 original strain in Vero E6 cells (qRT-PCR); type: cell-based; settings: read-out: Inhibition against viral replication of the original strain EC50
hERG potassium channel = molecular target: T1, hERG potassium channel (Homo sapiens, UniProt Q12809); assay: hERG potassium channel whole-cell membrane clamp in CHO cells; type: cell-based; settings: CHO cells stably expressing hERG, whole-cell membrane clamp
T1 construct: expressed in transfected cells
T1 sequence (Q12809 whole entry): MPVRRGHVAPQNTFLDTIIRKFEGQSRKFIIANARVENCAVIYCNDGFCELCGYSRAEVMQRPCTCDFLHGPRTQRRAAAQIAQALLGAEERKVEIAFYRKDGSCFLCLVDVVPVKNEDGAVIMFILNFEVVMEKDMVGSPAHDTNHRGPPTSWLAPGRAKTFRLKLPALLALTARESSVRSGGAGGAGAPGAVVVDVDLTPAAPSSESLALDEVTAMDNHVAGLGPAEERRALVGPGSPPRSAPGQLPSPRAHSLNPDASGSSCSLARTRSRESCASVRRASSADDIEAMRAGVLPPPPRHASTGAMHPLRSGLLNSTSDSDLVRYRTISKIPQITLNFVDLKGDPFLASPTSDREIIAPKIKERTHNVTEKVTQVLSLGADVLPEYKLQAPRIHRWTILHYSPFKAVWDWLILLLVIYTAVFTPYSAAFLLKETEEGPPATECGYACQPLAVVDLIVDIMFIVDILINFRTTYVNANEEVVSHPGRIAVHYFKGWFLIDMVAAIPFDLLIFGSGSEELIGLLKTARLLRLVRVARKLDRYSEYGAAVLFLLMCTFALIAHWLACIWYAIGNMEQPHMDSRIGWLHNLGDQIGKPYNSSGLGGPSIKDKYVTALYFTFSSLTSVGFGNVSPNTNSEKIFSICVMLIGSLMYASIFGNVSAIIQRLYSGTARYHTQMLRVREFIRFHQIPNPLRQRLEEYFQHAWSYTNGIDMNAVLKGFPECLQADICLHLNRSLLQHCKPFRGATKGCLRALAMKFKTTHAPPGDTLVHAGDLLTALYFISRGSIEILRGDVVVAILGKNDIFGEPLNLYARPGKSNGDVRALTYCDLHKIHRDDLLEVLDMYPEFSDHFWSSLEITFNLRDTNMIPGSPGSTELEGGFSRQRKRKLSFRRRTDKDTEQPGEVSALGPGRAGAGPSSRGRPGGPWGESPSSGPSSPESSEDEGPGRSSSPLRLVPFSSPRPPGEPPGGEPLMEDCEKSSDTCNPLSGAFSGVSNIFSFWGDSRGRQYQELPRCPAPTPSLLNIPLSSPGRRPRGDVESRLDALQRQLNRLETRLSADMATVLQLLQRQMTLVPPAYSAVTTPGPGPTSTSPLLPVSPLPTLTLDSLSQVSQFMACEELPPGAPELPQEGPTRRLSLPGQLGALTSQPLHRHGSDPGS
Method: Compounds were given for at least 1 min for each tested concentration, and at least 2 cells (n≥2) were tested per concentration.

Raw 264.7 cells [2] = assay: Cell viability in TNF-α induced inflammation model of Raw 264.7 cells (CCK-8); type: cell-based; settings: 10 ng/ml TNF-α, 1 μM compound, 16 hours
Method: (§2) In this embodiment, the effect of compounds on TNF-α-induced inflammation levels in Raw 264.7 cells was analyzed by cell viability combined with inflammatory factor expression levels; cell viability was analyzed by CCK-8 assay; and mRNA expression levels of inflammation-associated indicators were detected by real-time quantitative PCR (Q-PCR) method. Raw 264.7 cells were purchased from ATCC, CCK-8 kit was purchased from Meilunbio, item number MA0218-3, TNF-α was purchased from Merck, item no. GF314.
(§3) Experimental methods: first, 8000 cells/well Raw 264.7 cells were placed in 96-well plates and incubated overnight. On the second day, 0.1% DMSO was added to the control cells, 10 ng/ml TNF-α as well as 0.1% DMSO was added to the model group, 10 ng/ml TNF-α as well as 1 μM of the compounds (oxyacanthine hydrochloride (oxy), 1, 2, tetrandrine (tet), 3, 4, 6, 58) was added to the treatment group, and the 96-well plates were sterilized and incubated in a constant temperature incubator for 16 hours. Finally, the viability of the cells was detected using the CCK-8 kit.

[3] = Cytotoxicity test on Vero E6 cells (CCK8); type: cell-based; settings: African green monkey; Vero E6 cells, CCK8 kit
Method: (§4) In this embodiment, the half toxicity concentration of each embodiment on Vero E6 cells was determined by CCK8 kit analysis (CC50).

Vero E6 cells = assay: Cytotoxicity test on Vero E6 cells (CCK8); type: cell-based; settings: Vero E6 cells
Method: as §4

[4] = test system: inflammatory factor mRNA in Raw 264.7 cells; assay: mRNA levels of inflammatory indicators in TNF-α-induced inflammation model of Raw264.7 cells (Q-PCR); type: cell-based; settings: 10 ng/ml TNF-α, 1 μM compound, 16 hours
Method: as §2
as §3, with “5*10^4” for “8000”, “12-well” for “96-well”, “Cellular mRNA was extracted by lysis using Trizol (Yisheng, 10606ES60) and detected by real-time quantitative PCR after reverse transcription,” for “Finally,”, “primers are” for “viability of”, “same as in Table 2.” for “cells was detected using the CCK-8 kit.”

[5] = test system: Th1/Th17 differentiation of CD4+T cells; assay: CD4+T cell in vitro differentiation assay (Th1 IFN-γ / Th17 IL-17A, flow cytometry); settings: 10 μM, 72 h, IFN-γ/IL-17A by flow cytometry
Method: CD4^+T cell isolation: CD4^+T cells were isolated from the spleens of 7-8 week old C57BL/6 mice using the Mouse CD4^+T Cell Sorting Kit (Dynabeads® Untouched™ Mouse CD4 Cells Isolation Kit, Invitrogen, Catalog nos: 11415D).
In vitro differentiation of CD4^+T cells: the isolated CD4^+T cells were inoculated into 96-well plates while different concentrations of compounds were added, and then corresponding cytokines and antibodies were added: anti-CD28 (2 μg/ml), anti-CD3 (2 μg/ml), Anti-IL-4 (10 μg/ml), IL-12 (10 ng/ml), Anti-IFN-γ (10 μg/ml), anti-IL-4 (10 μg/ml), IL-6 (30 ng/ml), TGF-β1 (3 ng/ml), IL-10 (10 ng/ml), IL-23 (10 ng/ml), and TNF-α (10 ng/ml). Cells were cultured in 5% CO2 at 37° C. in a cell culture chamber for 72 h. Cells were collected, stained intracellularly, analyzed by flow cytometry, and tested for IFN-γ/IL-17A content to assess the effect of compounds on CD4^+T differentiation into Th1/Th17 in vitro.

Raw 264.7 cells [6] = assay: Cell viability in LPS-induced inflammation model of Raw 264.7 cells (CCK-8); type: cell-based; settings: 1 μg/ml LPS, 1 μM compound, 16 hours
Method: (§5) In this example, the effect of the compounds of the present invention on the inflammation level of the LPS-induced inflammation model of Raw 264.7 cells was analyzed by cell viability in combination with inflammatory factors; cell viability was analyzed by CCK-8 assay; and mRNA expression levels of inflammation-related indicators were detected by a real-time quantitative PCR (Q-PCR) method. Raw 264.7 cells were purchased from ATCC; CCK-8 kit was purchased from Meilunbio, item no. MA0218-3; LPS was purchased from Sigma, item no. L2630.
as §3, with “1 μg/ml LPS” for “10 ng/ml TNF-α”

[7] = test system: A549 lung epithelial cells; assay: Anti TGF-β1-induced fibrosis assay in A549 lung epithelial cells (microscopy, Western Blot); type: cell-based; settings: 10 ng/ml TGF-β1, 1 μM compound
Method: Cell injury was observed by microscopic observation; cell viability was analyzed by CCK-8 assay; and protein expression levels of fibrosis-related indicators were detected by Western Blot method. A549 cells were purchased from ATCC; CCK-8 kit was purchased from Meilunbio, item number MA0218-3; TGF-β1 was purchased from MCE, item number HY-P70543; primary antibodies: Collagen was purchased from ARG21965, item no. arigobio; α-smooth muscle actin was purchased from CST, item no. mAb #19245; VIMENTN was purchased from CST, item no. mAb #5741; GAPDH was purchased from Yeasen, item no. 30201ES20.
as §1, with “cells/well A549” for “cells/well ALM12”, “cells, 10 ng/ml TGF-β1” for “cells, 2 mM H2O2”, “group, 10 ng/ml TGF-β1” for “group, 2 mM H2O2”, “for 72” for “for 3”

[8] = test system: TNF-α and IL1β mRNA in A549 cells; assay: mRNA levels of injury indicators in TNF-α-induced A549 cell injury (Q-PCR); type: cell-based; settings: 10 ng/ml TNF-α, 1 μM compound, 24 hours
Method: In this example, cell viability combined with cell death-associated molecules were used to analyze the effect of compounds on the level of TNF-α-induced injury in A549 lung epithelial cells. Cell injury was observed by microscopy; cell viability was analyzed by CCK-8 assay; and mRNA expression levels of injury-related indicators were detected by real-time quantitative PCR (Q-PCR) method. A549 cells were purchased from ATCC, CCK-8 kit was purchased from Meilunbio, item no. MA0218-3, and LPS was purchased from Sigma, item no. L2630.
(§6) Experimental methods: first, 5*10^4 cells/well A549 cells were placed in 12-well plates and incubated overnight. On the second day, 0.1% DMSO was added to the control cells, 10 ng/ml TNF-α as well as 0.1% DMSO was added to the model group, 10 ng/ml TNF-α as well as 1 μM of the compounds (oxy, 1, 2, tet, 3, 4, 6, 58) was added to the treatment group, and the 12-well plates were sterilized and incubated in a constant temperature incubator for 24 hours. Cellular mRNA was extracted by lysis using Trizol (Yisheng, 10606ES60) and detected by real-time quantitative PCR after reverse transcription.

[9] = molecular target: novel coronavirus envelope protein (2-E) ion channel (Severe acute respiratory syndrome coronavirus 2, UniProt P0DTC4); assay: Novel coronavirus envelope protein (2-E) ion channel activity test, planar lipid bilayer (BLM); type: biochemical, SARS-CoV-2; settings: room temperature, 1, 10, 50, 100 μM, read-out: Inhibition against 2-E ion channels IC50
Sequence of novel coronavirus envelope protein (2-E) ion channel (P0DTC4 whole entry, looked up): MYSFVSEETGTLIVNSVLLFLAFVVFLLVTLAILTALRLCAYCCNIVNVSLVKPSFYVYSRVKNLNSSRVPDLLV

[10] = test system: IL-6, IL-1β, CXCL9 mRNA in Raw 264.7 cells; assay: mRNA levels of inflammatory indicators in LPS-induced inflammation model of Raw264.7 cells (Q-PCR); type: cell-based; settings: 1 μg/ml LPS, 1 μM compound, 16 hours
Method: as §5
as §6, with “Raw 264.7” for “A549”, “1 μg/ml LPS” for “10 ng/ml TNF-α”, “(oxyacanthine hydrochloride (oxy),” for “(oxy,”, “tetrandrine (tet),” for “tet,”, “16” for “24”

HCoV OC43 virus = assay: Inhibition against HCoV OC43 virus replication; type: cell-based, human coronavirus HCoV OC43
[11] = Severe acute respiratory syndrome coronavirus 2, Vero C1008, Vero E6 cells, MOI 0.01, 24 h p.i., viral copy number by qRT-PCR

Compound	alleviation of H2O2-induced ALM12 hepatocyte injury (ALM12 hepatocytes)	EC50 [1, 11]	IC50 (hERG potassium channel)	cell viability in TNF-α-induced inflammation model (Raw 264.7 cells [2])	IC50 [3]	cytotoxicity on Vero E6 cells compared with oxyacanthine hydrochloride (Vero E6 cells)	inhibition of inflammatory factors (mRNA) in TNF-α-induced inflammation model [4]	inhibitory effect on Th1/Th17 differentiation [5]	cell viability in LPS-induced inflammation model (Raw 264.7 cells [6])	EC50 [1]	IC50 (Vero E6 cells; CCK8 kit)	alleviation of TGF-β1-induced fibrosis in A549 lung epithelial cells (Collagen1, α-SMA by WB) [7]	inhibition of injury (damage) factors mRNA in TNF-α-induced A549 lung cell injury model [8]	IC50 [9]	inhibition of inflammatory factors (IL-6, IL-1β, CXCL9 mRNA) in LPS-induced inflammation model [10]	inhibition against human coronavirus HCoV OC43 (HCoV OC43 virus)	EC50 (HCoV OC43 virus; Betacoronavirus 1, OC43)
COc1cc2c3cc1Oc1c(OC)c(OC)cc4c1[C@H](Cc1ccc(cc1)Oc1cc(ccc1C(=O)NC1CC1)C[C@H]3N(C)CC2)N(C)CC4 [Compound 6]	significantly alleviated	0.1 to 1 µM	8.9 µM	did not affect cell viability	> 50 µM	weaker cytotoxicity than oxyacanthine hydrochloride	significantly inhibited inflammatory factors; also recorded: significant inhibition	strong inhibitory effect	did not affect cell viability	–	–	–	–	–	–	–	–
oxyacanthine hydrochloride [reference compound]	–	–	–	–	–	–	significant inhibition	–	–	> 10 µM	< 30 µM	partially alleviate fibrosis	significantly inhibited	> 100 µM	significant inhibition	–	–
COc1cc2c3cc1Oc1c(OC)c(OC)cc4c1[C@H](Cc1ccc(cc1)Oc1cc(ccc1C(=O)OCCOCCO)C[C@H]3N(C)CC2)N(C)CC4 [Compound 58]	significantly alleviated	0.1 to 1 µM	16.5 µM	did not affect cell viability	> 50 µM	weaker cytotoxicity than oxyacanthine hydrochloride	significantly inhibited inflammatory factors; also recorded: significant inhibition	strong inhibitory effect	did not affect cell viability	–	–	–	significantly inhibited the damage factors	–	significantly inhibited inflammatory factors; also recorded: significant inhibition	–	–
COC(=O)c1ccc2cc1Oc1ccc(cc1)C[C@H]1c3c(cc(OC)c(OC)c3Oc3cc4c(cc3OC)CCN(C)[C@@H]4C2)CCN1C [Compound 3]	significantly alleviated	0.1 to 1 µM	7 µM	did not affect cell viability	30 to 50 µM	weaker cytotoxicity than oxyacanthine hydrochloride	significantly inhibited inflammatory factors; also recorded: significant inhibition	strong inhibitory effect	did not affect cell viability	–	–	–	significantly inhibited the damage factors	< 10 µM	–	strong inhibition	2.3 µM
